Source: paper PMC8864717 (Chemical Science, 2021)
Where two headings read alike, the source gives them in different places.

Tests used:
[1] = cited from earlier work
[2] = test system: SARS-CoV-2; assay type: in vivo, golden Syrian hamster
[3] = test system: SARS-CoV-2; test: Viral load reduction assay, SARS-CoV-2 in Vero E6 cells; assay type: cell-based; conditions: Vero E6, up to 2000 μM
[4] = test system: SARS-CoV-2; assay type: cell-based; conditions: CBS 1000 μM, NAC 1000 μM, CBS 1000 μM + 3NAC 3000 μM, non-treated 64.5%
[5] = molecular target: SARS-CoV-2 PL^pro (Severe acute respiratory syndrome coronavirus 2, UniProt P0DTD1); assay type: biochemical; conditions: at comparable concentrations
[6] = molecular target: SARS-CoV-2 M^pro (Severe acute respiratory syndrome coronavirus 2, UniProt P0DTD1); assay type: biochemical; conditions: at comparable concentrations
[7] = Ex vivo everted gut sac model; assay type: in vitro ADME; conditions: rat duodenum, within 60 min, CBS 200 μM, pH 7.4
[8] = Blood bismuth concentration after oral administration in mice; assay type: in vivo; conditions: Balb/c mice, oral CBS 150 mg kg^-1 (NAC 180 or 610 mg kg^-1)
[9] = molecular target: ACE2 (Homo sapiens, UniProt Q9BYF1); test: ACE2 activity inhibition assay; assay type: biochemical
[10] = pH 9.2, with NAC
[11] = test system: Caco-2 cell monolayer; conditions: CBS 150 μM, without or with 10NAC 1.5 mM
[12] = SD rats
[13] = test system: SARS-CoV-2; conditions: read-out: EC50, SARS-CoV-2; cited from earlier work
[14] = cited from earlier work; remark: listed apart in the source
[15] = single oral dose CBS 150 mg/kg, NAC 610 mg/kg, n = 5

Sequence of ACE2 (Q9BYF1 18-805): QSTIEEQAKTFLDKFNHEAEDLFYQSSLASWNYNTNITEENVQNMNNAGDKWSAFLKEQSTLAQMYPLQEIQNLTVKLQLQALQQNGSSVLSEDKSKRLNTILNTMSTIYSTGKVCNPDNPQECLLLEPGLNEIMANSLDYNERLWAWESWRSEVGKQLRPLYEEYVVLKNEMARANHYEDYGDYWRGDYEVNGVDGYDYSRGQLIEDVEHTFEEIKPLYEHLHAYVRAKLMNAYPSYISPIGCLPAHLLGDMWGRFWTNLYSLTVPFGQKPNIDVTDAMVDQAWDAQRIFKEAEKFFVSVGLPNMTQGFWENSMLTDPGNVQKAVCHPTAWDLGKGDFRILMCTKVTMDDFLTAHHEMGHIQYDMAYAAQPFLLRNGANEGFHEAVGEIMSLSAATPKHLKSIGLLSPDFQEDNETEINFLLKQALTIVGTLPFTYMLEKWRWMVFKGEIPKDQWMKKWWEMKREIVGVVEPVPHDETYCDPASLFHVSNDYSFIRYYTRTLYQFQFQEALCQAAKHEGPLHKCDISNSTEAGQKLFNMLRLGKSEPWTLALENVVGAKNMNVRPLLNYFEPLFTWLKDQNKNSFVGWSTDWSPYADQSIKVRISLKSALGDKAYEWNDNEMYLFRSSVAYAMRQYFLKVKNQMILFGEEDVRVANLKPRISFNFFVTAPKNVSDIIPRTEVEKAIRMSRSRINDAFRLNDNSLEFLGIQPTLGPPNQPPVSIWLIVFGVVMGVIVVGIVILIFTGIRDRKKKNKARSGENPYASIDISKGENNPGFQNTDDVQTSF

## O=[N+]([O-])[O-].O=[N+]([O-])[O-].O=[N+]([O-])[O-].O=[N+]([O-])[O-].[Bi+3].[Bi+3].[Bi+3].[Bi+3].[Bi+3].[O-2].[OH-].[OH-].[OH-].[OH-].[OH-].[OH-].[OH-].[OH-].[OH-] [BSN, bismuth subnitrate]
[1]
  absorption of bismuth in the rat small intestine: lower than 1%

## CC(=O)N[C@@H](CS)C(=O)O [NAC, N-acetyl-L-cysteine]
[2]; hamster, in vivo, po
  SARS-CoV-2-NP antigen signal in alveolar tissue of hamster lungs: 85.67(±11.59) NP^+ cells per view
  lung pathology: partially relieve lung pathology
[2]; oral, CBS 300 mg kg^-1 or NAC 370 mg kg^-1, day -2 to 1, […]
  lung viral load versus vehicle group: no statistically significant difference
[3]
  anti-SARS-CoV-2 activity of NAC alone, virus copies in supernatant: negligible anti-SARS-CoV-2 activity
[4]
  viral NP antigen in infected Vero E6 cells: 59.75%
[5]
  inhibitory activity on SARS-CoV-2 PL^pro: negligible inhibitory activity
[6]
  inhibitory activity on SARS-CoV-2 M^pro: negligible inhibitory activity

## CNC(=C[N+](=O)[O-])NCCSCc1ccc(CN(C)C)o1.O=C([O-])CC(O)(CC(=O)[O-])C(=O)[O-].[Bi+3] [RBC, ranitidine bismuth citrate]
iso-pH 1.2, in the presence of 10 mol eq. NAC
  cumulative permeated bismuth, PAMPA: 19.77 ng cm^−2
iso-pH 1.2, without NAC
  cumulative permeated bismuth, PAMPA: 15.24 ng cm^−2

## colloidal bismuth subcitrate [CBS]
[2]; hamster, in vivo, po
  SARS-CoV-2-NP antigen signal in alveolar tissue of hamster lungs: 68.00(±6.08) NP^+ cells per view
[2]; oral treatment, end of experimental period
  adverse clinical signs and symptoms of infected hamsters: mildly mitigated
[4]
  viral NP antigen in infected Vero E6 cells: 37.25%
[7]
  cumulative bismuth permeated, everted sac model: 14.68(±4.12) ng cm^−2
[8]; 0.5 hour
  blood bismuth concentration: 225.75(±86.05) μg L^−1
[8]; 1 hour
  blood bismuth concentration: 87.27(±21.46) μg L^−1
[9]
  inhibition of ACE2 activity: barely displayed anti-ACE2 potency
[10]
  hydrolysis of CBS at pH 9.2 in the presence of NAC: prevent hydrolysis
iso-pH 1.2, without NAC
  cumulative permeated bismuth, PAMPA: 16.95 ng cm^−2
[11]
  cellular accumulation of bismuth in Caco-2 monolayer: 0.33(±0.02) %
[11]; pH 7.4
  apparent permeability coefficient (Papp) through Caco-2 monolayer: 1.73(±0.02) × 10^−7 cm s^−1
[12]; 24 hour after oral dose
  bismuth accumulation in the kidney: 6839.76(±1652.30) ng per tissue
  bismuth accumulation in the lung: 552.15(±104.97) ng per tissue
[12]; oral CBS 150 mg kg^-1, at around 0.5 h
  first peak value of blood bismuth level: 277.69 µg/L
[12]; [15]
  AUC0→12 h: 1316(±474.00) h μg L^−1
  Cmax (blood bismuth): 447.06(±132.39) μg L^−1
[13]
  EC50: 4.6 µM
[14]; pH 3
  solubility in water: about 1 mg mL^−1
[14]; pH 7
  solubility in water: > 70 mg/mL
[1]
  absorption of bismuth in the rat small intestine: lower than 1%
